Experimental data taken from patent US12605352B2, “Compositions and methods for inhibiting blood cancer cell growth” (UNIVERSITY OF NEW BRUNSWICK, priority 2019, dated 2026).

Assays:
[1] = system: KMM-1 human myeloma cells; assay: Cell growth inhibition (cell viability assay) on IMiD-resistant human myeloma cells KMM-1; type: cell-based; conditions: for inhibition at 10 µM: Homo sapiens, KMM-1 cells, 48 hr treatment; for anti-myeloma cell growth inhibition (in words): 10 uM, KMM-1, listed in decreasing order of bioactivity
Source text: (§1) In certain embodiments of the present invention, the remarkable cancer cell growth inhibitory potential of caffeic acid phenpropyl ester analogues was established by treating human leukemia, myeloma and lymphoma cell lines with the analogues of Table 1 and measuring the viability of blood cancer cells by cell viability assay. The efficacy of the analogues of Table 1 in comparison to a standard chemotherapy drug was confirmed.
With reference to Table 1, Table 2 and FIG. 1, FIG. 1 is a bar graph depicting cell growth inhibitory effect of caffeic acid phenpropyl ester (GL8) analogues at 10 uM concentration according to certain aspects of the present disclosure on human myeloma cells (Cell line: KMM-1; 48 hr treatment).

[2] = system: OCI-LY3 human lymphoma cells; assay: Cell growth inhibition (cell viability assay) on IMiD-resistant human lymphoma cells OCI-LY3; type: cell-based; conditions: for anti-lymphoma cell growth inhibition (in words) / inhibition at 10 µM: 10 uM; for anti-lymphoma cell growth inhibition (in words): OCI-LY3, listed in decreasing order of bioactivity; for inhibition at 1 µM / inhibition at 10 µM: Homo sapiens, OCI-LY3 cells, 48 hr treatment
Source text: as §1
With reference to Table 3 and FIG. 2, FIG. 2 is a bar graph depicting cell growth inhibitory effect of caffeic acid phenpropyl ester (GL8) analogues according to certain aspects of the present disclosure at 1 uM concentration on human lymphoma cells (Cell line: OCI-LY3; 48 hr treatment).
With reference to Table 1, Table 4 and FIG. 3, FIG. 3 is a bar graph depicting cell growth inhibitory effect of caffeic acid phenpropyl ester (GL8) analogues according to certain aspects of the present disclosure at 10 uM concentration on human lymphoma cells (Cell line: OCI-LY3; 48 hr treatment).

[3] = system: HL-60 human leukemia cells; assay: Cell growth inhibition (cell viability assay) on human leukemia cells HL-60; type: cell-based; conditions: HL-60 cells, 48 hr treatment
Source text: as §1
With reference to Table 5 and FIG. 4, FIG. 4 is a bar graph depicting cell growth inhibitory effect of caffeic acid phenpropyl ester (GL8) analogues at 10 uM concentration according to certain aspects of the present disclosure on human leukemia cells (Cell line: HL-60; 48 hr treatment).

KMM1 cells = assay: Annexin V-PI flow cytometry apoptosis assay on KMM1 myeloma cells; type: cell-based, human; conditions: 10 uM, 72-hour treatment
Method: Induction of apoptosis in myeloma cells by various inhibitors was determined by staining exposed phosphatidylserine with Annexin V-FITC and DNA with Propidium iodide using Alexa Fluor® 488 annexin V/Dead Cell Apoptosis Kit (Invitrogen, ThermoFisher Scientific, CA) according to the manufacturer's instructions. Single-cell suspensions were analyzed on a Beckmann Coulter Gallios Flow Cytometer with Kaluza analyses software. Twenty-five thousand events were acquired for every condition. Apoptotic cells were scored as Annexin V+, PI− and Annexin V+, PI+.
Referring to FIG. 6, Apoptotic effect of veh/vehicle (DMSO), lenalidomide (len), pomalidomide (pom), CAPE, GL8, As26 and J229 (all compounds at 10 uM concentration) on KMM1 cells upon 72-hour treatment followed by Annexin V-PI flow cytometry analyses is shown. Percentage of early and late apoptotic cells are presented as mean±SD (*P≤0.05; **P≤0.01).

[4] = system: myeloma cell lines (KMM1, MM1R, JJN3); assay: PrestoBlue cell viability assay, concentration response on myeloma cell lines; type: cell-based, human; conditions: in comparison to IMiDs, CAPE, GL8 and J229; 48 hours
Method: Myeloma cell lines were treated for 3 or 5 days with increasing concentration of lenalidomide (FIG. 5A) and pomalidomide (FIG. 5B). KMM1 cells (FIG. 5D), MM1R cells (FIG. 5E), and JJN3 cells (FIG. 5F) were treated for 48 hours with varying concentration of CAPE, GL8, As26 and J229. The cell growth inhibition was determined by PrestoBlue cell viability assay. Data from three independent experiments is presented as mean±SD. IC50 values (FIG. 5C) representing half-maximal inhibitory concentration of compounds were determined using GraphPad prism analyses software.

Compound | inhibition at 10 µM [1] | anti-lymphoma cell growth inhibition (in words) [2] | inhibition at 1 µM [2] | inhibition at 10 µM [2] | inhibition at 10 µM [3] | anti-myeloma cell growth inhibition (in words) [1] | apoptotic effect (in words) (KMM1 cells) | myeloma cell growth inhibitory effect (in words) [4]
O=C(/C=C/c1cccc(O)c1O)OCCCc1ccccc1 [As25, (E)-3-phenylpropyl 3-(2,3-dihydroxyphenyl)acrylate] | 15.1% | superior anti-lymphoma cell growth inhibition | 69% | 84% | 13.6% | – | – | –
O=C(/C=C/c1cc(O)ccc1O)OCCCc1ccccc1 [As26, (E)-3-phenylpropyl 3-(2,5-dihydroxyphenyl)acrylate] | 89.7% | superior anti-lymphoma cell growth inhibition | 26.6% | 90.3% | 54.4% | superior anti-myeloma cell growth inhibition | Remarkable apoptotic effect | superior myeloma cell growth inhibitory effect
O=C(/C=C/c1ccc(O)c(O)c1)OCCc1ccccc1 [CAPE, Caffeic acid (3,4-dihydroxycinnamic acid) phenethyl ester, reference compound] | 14.7% | – | -24.3% | 51.8% | -6.8% | – | – | –
O=C(/C=C/c1ccc(O)c(O)c1)OCc1ccccc1 [GL7, (E)-benzyl 3-(3,4-dihydroxyphenyl)acrylate] | 15.9% | – | 10.5% | 18.9% | 20.5% | – | – | –
O=C(/C=C/c1ccc(O)c(O)c1)OCCCc1ccccc1 [GL8, caffeic acid phenpropyl ester, reference compound] | 28.2% | – | -4.6% | 78.7% | 36% | – | – | –
O=C(/C=C/c1ccc(O)c(O)c1)Oc1ccccc1 [GL9, (E)-phenyl 3-(3,4-dihydroxyphenyl)acrylate] | 26% | – | 26.3% | 44.7% | 6.8% | – | – | –
COc1cc(/C=C/C(=O)OCCc2ccccc2)cc(OC)c1O [HM5, (E)-phenethyl 3-(4-hydroxy-3,5-dimethoxyphenyl)acrylate] | -8.6% | – | 3.1% | -15.4% | -13.3% | – | – | –
COc1cc(/C=C/C(=O)OCCCc2ccccc2)cc(OC)c1O [HM7, (E)-3-phenylpropyl 3-(4-hydroxy-3,5-dimethoxyphenyl)acrylate] | 26.6% | superior anti-lymphoma cell growth inhibition | -4.9% | 90% | 24.1% | superior anti-myeloma cell growth inhibition | – | –
O=C(/C=C/c1ccc(O)c(O)c1)OC/C=C/c1ccccc1 [LL14, (2E)-cinnamyl 3-(3,4-dihydroxyphenyl)acrylate] | 16.1% | – | -1% | 61.5% | 21.6% | – | – | –
O=C(/C=C/c1ccc(O)c(O)c1)OCCCCc1ccccc1 [LL23, (E)-4-phenylbutyl 3-(3,4-dihydroxyphenyl)acrylate] | 27.2% | – | -9.3% | 71.7% | 33% | superior anti-myeloma cell growth inhibition | – | –
O=C(/C=C/c1ccc(O)c(O)c1)NCCCc1ccccc1 [LL28, (E)-3-(3,4-dihydroxypheny1)-N-(3-phenylpropyl)acrylamide] | 15.8% | – | -9.5% | 36% | 8.7% | – | – | –
Nc1cccc2c1CN(C1CCC(=O)NC1=O)C2=O (stereo not shown) [Lenalidomide, lenalidomide, reference compound] | 7.5% | – | – | 7.5% | 1.6% | – | – | –
Cc1ccc(CCOC(=O)/C=C/c2ccc(O)c(O)c2)cc1 [MT25, (E)-(4-methylphenethyl) 3-(3,4-dihydroxyphenyl)acrylate] | 21.6% | – | 10% | 59.8% | 28.7% | – | – | –
O=C(/C=C/c1ccc(O)c(O)c1)OCCc1ccc(F)cc1 [MT26, (E)-(4-fluorophenethyl) 3-(3,4-dihydroxyphenyl)acrylate] | 25.9% | superior anti-lymphoma cell growth inhibition | 0.7% | 79.3% | 32.1% | – | – | –
COc1cc(/C=C/C(=O)OCCc2ccccc2)ccc1O [MT49, (E)-phenethyl 3-(4-hydroxy-3-methoxyphenyl)acrylate] | 6.5% | – | -1% | 1.2% | 14.4% | – | – | –
COc1cc(/C=C/C(=O)OCCCc2ccccc2)ccc1O [MT50, (E)-3-phenylpropyl 3-(4-hydroxy-3-methoxyphenyl)acrylate] | 13.6% | – | -0.7% | 1.5% | 13.4% | – | – | –
O=C(/C=C/c1ccc(O)cc1O)OCCCc1ccccc1 [MT72, (E)-3-phenylpropyl 3-(2,4-dihydroxyphenyl)acrylate] | -0.2% | – | 3.3% | -4.5% | -8.2% | – | – | –
O=C(/C=C/c1ccc(O)c(O)c1)OCC#Cc1ccccc1 [Molecule J91, (E)-3-phenylprop-2-ynyl 3-(3,4-dihydroxyphenyl)acrylate] | 31.7% | – | 0.3% | 39.8% | 32.4% | superior anti-myeloma cell growth inhibition | – | –
O=C(/C=C/c1ccc(O)c(O)c1)CCCc1ccccc1 [Molecule J205, (E)-1-(3,4-dihydroxyphenyl)-6-phenylhex-1-en-3-one] | 22.2% | – | 18.7% | 76.6% | 60.7% | – | – | –
Oc1ccc(/C=C/COCCCc2ccccc2)cc1O [Molecule J229, 4-((E)-3-(3-phenylpropoxy)prop-1-enyl)benzene-1,2-diol] | 49.4% | superior anti-lymphoma cell growth inhibition | 2.3% | 78.2% | 54.3% | superior anti-myeloma cell growth inhibition | – | –
